Test results from patent publication US10844071B2, “Substituted [1,2,3]triazolo[4,5-d]pyrimidines that lower stress-induced p-tau” (BUCK INSTITUTE FOR RESEARCH ON AGING, priority 2015, dated 2020).
≈ marks a conversion by molar mass, not a printed value. Entries after “also recorded” stand apart in the source; their conditions may differ. Like-named read-outs stand apart in the source and are kept apart here.

Legend:
J20 mice [1] = experiment: J17 pilot study in J20 mice (oral, 28 days); type: in vivo, mouse
Description: (§1) Animal experiments were performed using J20 mice. The J20 mouse is a model of for Alzheimer's disease. This model overexpresses human APP with two mutations linked to familial Alzheimer's disease (the APP KM670/671NL (Swedish) and […] (Indiana) mutations).
In a J17 pilot study (#1 pilot study) male and female J20 mice were housed singly and treated with J17 at 10 mkd by oral delivery for 28 days. […]

J20 mice [2] = experiment: J03 pilot study #2 in J20 mice (oral, longer duration); type: in vivo, mouse; settings: oral delivery
Description: as §1
Based on these promising results, the study was repeated (pilot study #2) with oral delivery and a longer duration.

CRFR2 = target: T1, CRFR2 (Homo sapiens, UniProt Q13324); experiment: CRFR2 binding (Ki)
T1 sequence (Q13324 1-411): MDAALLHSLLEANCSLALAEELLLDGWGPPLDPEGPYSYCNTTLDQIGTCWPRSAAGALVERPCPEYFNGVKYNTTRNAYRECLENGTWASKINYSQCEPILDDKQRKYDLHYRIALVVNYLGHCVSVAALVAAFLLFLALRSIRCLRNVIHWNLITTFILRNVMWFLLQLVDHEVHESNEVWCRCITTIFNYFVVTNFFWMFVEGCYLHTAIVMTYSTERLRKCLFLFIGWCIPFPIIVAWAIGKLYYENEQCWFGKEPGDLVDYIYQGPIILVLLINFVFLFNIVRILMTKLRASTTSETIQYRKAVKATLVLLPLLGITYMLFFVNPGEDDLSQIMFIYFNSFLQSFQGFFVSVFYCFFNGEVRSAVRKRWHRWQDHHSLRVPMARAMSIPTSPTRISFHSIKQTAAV

PAMPA = type: in vitro ADME; settings: Tertiary
CRF1 = target: T2, CRF1 (Homo sapiens, UniProt P34998); experiment: CRF1 binding (Ki)
T2 sequence (P34998 24-415): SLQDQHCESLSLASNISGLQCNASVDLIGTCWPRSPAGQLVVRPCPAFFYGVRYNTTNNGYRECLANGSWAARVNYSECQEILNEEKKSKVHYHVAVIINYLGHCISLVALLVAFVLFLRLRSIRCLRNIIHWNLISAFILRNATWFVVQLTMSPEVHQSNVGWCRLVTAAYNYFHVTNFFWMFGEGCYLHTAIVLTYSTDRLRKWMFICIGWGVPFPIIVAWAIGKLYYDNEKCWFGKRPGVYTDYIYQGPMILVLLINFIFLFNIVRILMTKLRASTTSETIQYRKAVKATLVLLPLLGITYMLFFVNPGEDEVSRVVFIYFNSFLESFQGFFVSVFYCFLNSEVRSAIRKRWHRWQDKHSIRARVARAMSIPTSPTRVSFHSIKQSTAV

SH-SY5Y cells [3] = experiment: Primary screen in SH-SY5Y cells (tau, p-tau); type: cell-based
Description: (§2) As described below, in vitro studies were performed using SHSY-5Y cells. These cells are a useful neurological model that differentiate into cells with morphological and biochemical characteristics of mature neurons including mature isoforms of tau.
However, J04 did lower p-tau to the same level as J03 and significant may not have been reached due to low N #.

Solubility in DMSO = type: physicochemical; settings: organic solvent or mixture, read-out: Solubility
p-tau = experiment: Cortisol-induced (stress-induced) p-tau increase in vitro; type: cell-based
Source text: To identify therapeutic candidates, a clinical library of CRF-1R inhibitors to was screened to determine their effects on cortisol-induced p-tau increases. […] J03 was shown specifically to inhibit stress-induced p-tau increases by cortisol in vitro.

J20 mice [4] = experiment: J03 pilot study #1 in J20 mice (SQ, 12 days); type: in vivo, mouse; settings: SQ 10 mkd
Description: as §1
In pilot study #1, J20 mice housed singly were treated by SQ injection of J02 in PEG/b-MCD at 10 mkd for 12 days. NOR analysis of object memory (N=5/group) was performed. […] There was no difference in Aβ1-40 (panel B), but a decrease in Aβ1-42 (panel C).

SH-SY5Y cells [5] = experiment: Secondary screen in SH-SY5Y cells with CRF stimulation (tau, p-tau, sAPPα); type: cell-based
Description: as §2
In an initial study, SHSY-5Y cells were cultured without serum to induce differentiation and increase tau expression. […] The increases were proportional and both were about 50%. J03 (FIG. 4A) reduced the CRF-induced tau increases more than the p-tau increases. The increase in p-tau with CRF was expected, but the increase in tau less predictable as CRF reduces neuronal differentiation (see Chen et al. (2004) Proc. Natl. Acad. Sci. USA, 101(44): 15782-15787), however, it can increase tau accumulation.

[6] = In vivo pharmacokinetics, brain and plasma levels; set-up: species or system mouse
[7] = SH-SY5Y cells, CRF-induced increase

CCC(COC)n1nnc2c(Nc3ccc(OC)cc3C)nc(C)cc21 (centres unmarked) [Compound J03, N-(4-Methoxy-2-methylphenyl)-1-[1-(methoxymethyl)propyl]-6-methyl-1H-1,2,3-triazolo[4,5-c]pyridine-4-amine]
novel object preference (J20 mice [1]; all mice): increased novel object preference more than 17
sAPPα (J20 mice [1]; both genders): increase
sAPPα/sAPPβ ratio (J20 mice [1]; males): slight increase
activity (total interactions) (J20 mice [1]; not significant): lowered
Aβ1-40 (J20 mice [2]): unchanged
Aβ1-40/Aβ1-42 ratio (J20 mice [2]): unchanged
Aβ1-42 (J20 mice [2]): unchanged
novel location assay (J20 mice [2]): performed well
novel object assay (J20 mice [2]): performed well
sAPPα (J20 mice [2]): increased slightly
sAPPα/sAPPβ ratio (J20 mice [2]): slightly increased
sAPPβ (J20 mice [2]): unchanged
p-tau (J20 mice [2]; decrease reached statistical significance): decreased
Ki (CRFR2): > 10000 nM
PAMPA (PAMPA): 0.92
Ki (CRF1; Tertiary, read-out: CRF1 Ki): 7 nM
Ki (CRF1; read-out: CRF-1 antagonist Ki): ~7.9 nM
Tau % (SH-SY5Y cells [3]; Primary (SH-SY5Y)): Unchanged
p-tau (SH-SY5Y cells [3]; SH-SY5Y cells, no CRF): decreased
solubility (Solubility in DMSO): ~10 mM (≈ 3550 µg/mL)
stress-induced p-tau increases by cortisol (p-tau): inhibit
Aβ1-40 (J20 mice [4]): no difference
Aβ1-40/1-42 ratio (J20 mice [4]): significantly increased
Aβ1-42 (J20 mice [4]): decrease
P-tau (J20 mice [4]): significantly lower
SAPP (sAPPα levels) (J20 mice [4]): very slightly increased
sAPP/Aβ1-42 ratio (J20 mice [4]): very slightly increased
p-tau/tau ratio (J20 mice [4]; great individual variation): slightly higher
Total tau (J20 mice [4]; largely due to one mouse): decreased
behavior (NOR analysis of object memory) (J20 mice [4]; single housed J20 mice): slight improvement
p-tau/tau ratios (SH-SY5Y cells [5]; 50 and 100 nM CRF, FIG. 28 panel C): highly significantly decreased
sAPPα (SH-SY5Y cells [5]; FIG. 28 panel D, significance for J03 at 100 nM CRF): trend for sAPPα to be higher
p-tau after CRF exposure (SH-SY5Y cells [5]; [7]): reduces; also recorded: decreased
tau after CRF exposure (SH-SY5Y cells [5]; [7]): reduces; also recorded: decreased
sAPPα after CRF exposure (SH-SY5Y cells [5]; SH-SY5Y cells, FIG. 19): lower
sAPPα (%) (SH-SY5Y cells [5]; Secondary (SH-Sy5Y, CRF stimulation)): Unchanged
tau (SH-SY5Y cells [5]; absence of CRF and presence of 100 nM CRF, FIG. 28 panel A): significantly decreased
p-tau (SH-SY5Y cells [5]; presence and absence of CRF, FIG. 28 panel B): significantly reduced
brain levels ([6]; 10 mk subcutaneous (SQ) injection, J20 mice): low
concentration at 2 h ([6]; J20, mouse, brain, two hours after oral dosing in formulation, first day of pilot study #2): 170 ng/g
brain levels ([6]; end of pilot study #2, oral dosing): about 35 ng/g
